Experimental data published in PubChem BioAssay AID624405 (Broad Institute, 2012).
Results filed as inconclusive are left out.

tested on: C2C12 myotubes + simvastatin, ATP luminescence, 48 h; assay: rescue of simvastatin-induced ATP loss – cell-based, C2C12 myotubes, ATP luminescence, cherry pick, dose response (AID 624405);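 further: myotubes are challenged with simvastatin at 10 µM to lower ATP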

SMILES | AC40 [µM]
C[C@H](CO)N1C[C@H](C)[C@@H](CN(C)Cc2ccc(C(=O)Nc3ccccc3N)cc2)Oc2ccc(NC(=O)Nc3ccc4c(c3)OCO4)cc2CC1=O | 11.7
C[C@H](CO)N1C[C@H](C)[C@H](CN(C)Cc2ccc(C(=O)Nc3ccccc3N)cc2)Oc2ccc(NC(=O)Nc3ccc(F)cc3)cc2CC1=O | 1.97
Cc1c(NC(=O)CSc2ccccn2)c(=O)n(-c2ccccc2)n1C | 10.7
COC(=O)c1cc(=O)n(CCc2ccccc2F)c(=Nc2ccc(F)c(Cl)c2)s1 | 2.81
O=C(CN1CCN(c2nc(-c3ccccc3)cs2)CC1)NCc1ccc2c(c1)OCO2 | 10
Cc1ccc(S(=O)(=O)N(C)C[C@@H]2Oc3ccc(NS(=O)(=O)c4ccc(Cl)cc4)cc3C(=O)N([C@H](C)CO)C[C@@H]2C)cc1 | 8.22
Fc1ccc(C2=Nn3c(nnc3-c3n[nH]c4c3CCC4)SC2)cc1 | 1.23
Cc1ccc(C2OC(=O)c3ccccc32)cc1 (stereo not given) | 2.21
C[C@H]1CN([C@@H](C)CO)C(=O)c2cc(C#Cc3ccncc3)cnc2O[C@@H]1CN(C)CC1CCCC1 | 4.52
CC1CCN(S(=O)(=O)c2ccc(NC(=O)C3CCN(C(=O)c4ccco4)CC3)cc2)CC1 | 6.94
C=CCOc1ccc(Br)cc1/C=N/O | 17.9
O=S(=O)(c1ccccc1)c1nc(-c2ccco2)oc1N1CCCCCC1 | 6.08
C[C@@H]1CN([C@@H](C)CO)C(=O)c2cc(NC(=O)Nc3cccc4ccccc34)ccc2O[C@@H]1CN(C)Cc1ccc(C(=O)Nc2ccccc2N)cc1 | 2.85
Cc1ccc(S(=O)(=O)N2CCN(C(=O)c3cccs3)CC2)cc1C | 9.44
COc1ccc(S(=O)(=O)N(C)C[C@H]2Oc3c(NC(=O)Nc4ccc(F)cc4)cccc3C(=O)N([C@@H](C)CO)C[C@H]2C)cc1 | 14.5
c1ccc(-c2csc3nnc(SCc4ccc5c(c4)OCCO5)n23)cc1 | 3.7
C[C@H](CO)N1C[C@H](C)[C@@H](CN(C)S(=O)(=O)c2ccc(Cl)cc2)Oc2ccc(NC(=O)NC3CCCCC3)cc2CC1=O | 10.3
C[C@@H]1CN([C@H](C)CO)C(=O)c2cc(NS(=O)(=O)c3ccc(Cl)cc3)ccc2O[C@@H]1CN(C)Cc1ccc(C(=O)Nc2ccccc2N)cc1 | 11.3
Cc1ccc(S(=O)(=O)Nc2ccc3c(c2)CC(=O)N([C@H](C)CO)C[C@H](C)[C@@H](CN(C)Cc2ccc(Cl)c(Cl)c2)O3)cc1 | 8.12
CC1CCN(c2nc3c(c(=O)[nH]c(=O)n3C)n2CCCc2ccccc2)CC1 | 4.71
N#CCCCSc1nnc(CSc2nc3ccccc3s2)n1-c1ccccc1 | 9.75
C[C@H]1CN([C@@H](C)CO)C(=O)Cc2cc(NC(=O)CCCCCC(=O)Nc3ccccc3N)ccc2O[C@H]1CN(C)Cc1ccc(-c2ccccc2)cc1 | 7.68

SMILES | AC40 [µM]
CC1(Cc2ccc(Cl)cc2)C(=O)Nc2ccc(-c3cccnc3)cc21 (stereo not given) | 15.8
C=CCn1c(=O)c2c(nc3n2CC(C)CN3c2cccc(OC)c2)n(C)c1=O (stereo not given) | 10.5
Cc1noc(C)c1S(=O)(=O)Nc1ccc2c(c1)CC(=O)N([C@H](C)CO)C[C@@H](C)[C@H](CN(C)Cc1ccc(-c3ccccc3)cc1)O2 | 20.3
COc1ccc(S(=O)(=O)Nc2cccc3c2O[C@H](CN(C)C(=O)Nc2ccc(F)cc2)[C@H](C)CN([C@@H](C)CO)C3=O)cc1 | 6.89
C[C@@H]1CN([C@H](C)CO)C(=O)Cc2cc(NC(=O)C3CCCCC3)ccc2O[C@H]1CN(C)Cc1ccc(Cl)c(Cl)c1 | 5.24
Cc1ccc(C(C(=O)NC2CCCC2)N(C(=O)Cc2cccs2)c2ccc3c(c2)OCCO3)cc1 (stereo not given) | 19
C[C@@H]1CN([C@H](C)CO)C(=O)c2cc(NC(=O)Nc3cccc4ccccc34)ccc2O[C@@H]1CN(C)Cc1ccc(C(=O)Nc2ccccc2N)cc1 | 6.44
Oc1[nH]c2ccccc2c1C=Nc1ccc2c(c1)OCO2 | 1.99
COc1ccc(C(=O)Nc2ccccc2N2CCOCC2)cc1Br | 12.1
C[C@H]1C[C@@H](C)C(=O)[C@@H]([C@H](O)CC2CC(=O)NC(=O)C2)C1 | < 0.16
C[C@H](CO)N1C[C@H](C)[C@@H](CN(C)Cc2ccc(C(F)(F)F)cc2)Oc2ccc(NC(=O)CCCCCC(=O)Nc3ccccc3N)cc2CC1=O | 8.51
C[C@H](CO)N1C[C@H](C)[C@H](CN(C)Cc2ccccc2)Oc2ccc(NC(=O)CCCCCC(=O)Nc3ccccc3N)cc2CC1=O | 10.1
CCn1c(CNc2ccc(F)cc2)nnc1SCC(=O)Nc1ccc(OC)cc1 | 5.81
C[C@@H]1CN([C@@H](C)CO)C(=O)Cc2cc(NC(=O)CCCCCC(=O)Nc3ccccc3N)ccc2O[C@H]1CN(C)Cc1ccc(-c2ccccc2)cc1 | 10.7
O=C(CCNS(=O)(=O)c1ccc(Br)cc1)NCc1ccc2c(c1)OCO2 | 14.8
Cc1cccc(C(=O)Nc2cc(OCc3cccc(F)c3)c(Cl)cc2Cl)c1 | 15.9
O=C(CSCc1cnn(-c2ccccc2)c1-n1cccc1)NCc1cccs1 | 18.9
Cc1ccc(O)c(CNc2ccccn2)c1 | 0.443
C[C@@H]1CN([C@H](C)CO)C(=O)Cc2cc(NS(=O)(=O)c3ccc(Cl)cc3)ccc2O[C@H]1CN(C)CC1CCCCC1 | 9.96
CC(=O)C(=Nc1ccccc1Cl)NNc1ccc(Cl)cc1 | 6.58
Cc1onc(-c2ccccc2Cl)c1C(=O)NCc1nc(-c2ccccc2)no1 | 8.26
O=C(C[C@H]1CC[C@@H]2[C@H](COC[C@H](O)CN2CCC(F)(F)F)O1)NCc1ccc(Oc2ccccc2)cc1 | 7.6

SMILES | AC40 [µM]
COc1cccc(-c2ccc([C@@H]3[C@@H](C#N)N(C(=O)Cc4ccccc4)[C@H]3CO)cc2)c1 | 11.5
C[C@H]1CN([C@@H](C)CO)S(=O)(=O)c2ccc(-c3cccc(F)c3)cc2O[C@@H]1CN(C)S(=O)(=O)c1ccc(F)cc1 | 15.5
COc1ccc2c(Cl)c(-c3nnc(SCC(=O)c4ccccc4)n3C)sc2c1 | 1.13
CCOc1ccccc1NC(=O)c1ccccc1N(C)S(C)(=O)=O | 5.38
COc1ccccc1C(=O)Nc1ccc2c(c1)OCO2 | 4.38
N#C[C@@H]1[C@@H](c2ccccc2)[C@H](CO)N1S(=O)(=O)c1ccc(-c2ccccc2)cc1 | 8.78
O=C1C[C@@H]2c3c(cccc3CN1Cc1ccccc1F)C[C@@H](O)[C@H]2O | 17.2
CCN1C(=O)NC2=C(C(=O)c3ccccc32)C1c1ccccc1F (stereo not given) | 5.31
O=c1[nH]ncc2c3ccccc3n(Cc3ccccc3)c12 | 5.26
CCCC(c1nnnn1Cc1ccc(OC)cc1)N1CCN(c2ccccc2)CC1 (stereo not given) | 5.18
O=C(NCc1ccco1)C1CCN(C(=O)c2cc3sccc3n2Cc2ccc(F)cc2)CC1 | 12.1
O=C1c2ccccc2-c2onc3ccc(Oc4ccccc4)c1c23 | 5.91
C[C@H](CO)N1C[C@H](C)[C@H](CN(C)Cc2ccc(C(=O)Nc3ccccc3N)cc2)Oc2ccc(NC(=O)Nc3cccc4ccccc34)cc2C1=O | 8.83
C[C@H]1CN([C@@H](C)CO)C(=O)Cc2cc(NC(=O)CCCCCC(=O)Nc3ccccc3N)ccc2O[C@H]1CN(C)Cc1ccccc1 | 3.02
CCCCNc1oc(-c2cccs2)nc1S(=O)(=O)c1ccccc1 | 7.73
C[C@H]1CN([C@@H](C)CO)C(=O)Cc2cc(NS(=O)(=O)c3ccc(F)cc3)ccc2O[C@@H]1CN(C)Cc1ccc(Cl)c(Cl)c1 | 15.8
Clc1ccc(Cn2ncc3c(N4CCCCC4)ncnc32)cc1 | 15.8
Cc1cccc(-c2nnc3n2N=C(c2ccccc2Br)CS3)c1 | 0.28
Cc1nc(-c2cccc(S(=O)(=O)N3CC(C)OC(C)C3)c2)cs1 (stereo not given) | 18.3
C[C@H]1CN([C@@H](C)CO)S(=O)(=O)c2ccc(C#Cc3ccc(F)cc3)cc2O[C@@H]1CN(C)S(=O)(=O)c1cn(C)cn1 | 5.96
Cc1[nH]nc2c1C1(C(=O)N(Cc3ccc(Cl)cc3)c3ccccc31)C(C#N)=C(N)O2 (stereo not given) | 4.72
C[C@@H]1CN([C@H](C)CO)C(=O)Cc2cc(NS(=O)(=O)c3cn(C)cn3)ccc2O[C@@H]1CN(C)Cc1ccc(Cl)c(Cl)c1 | 2.69

SMILES | AC40 [µM]
C[C@H](CO)N1C[C@H](C)[C@@H](CN(C)Cc2ccc(Oc3ccccc3)cc2)Oc2ccc(NC(=O)C3CCCCC3)cc2CC1=O | 8.63
CCC(C(=O)NC1CCCC1)N(C(=O)Cn1nnc(-c2ccc(OC)c(OC)c2)n1)c1cccc(O)c1 (stereo not given) | 8.39
C[C@H](CO)N1C[C@H](C)[C@@H](CN(C)Cc2ccc(Oc3ccccc3)cc2)Oc2c(NC(=O)Nc3cccc4ccccc34)cccc2C1=O | 7.98
O=C(NCc1ccco1)c1cc2sccc2n1Cc1ccc(F)cc1 | 16.4
C/C=C/Cn1c(SCc2ccccc2)nc2c1c(=O)[nH]c(=O)n2C | 0.556
O=C(C1CCC1)N1CCCc2cc(S(=O)(=O)N3CCN(c4ccccc4)CC3)ccc21 | 16.6
C[C@H](CO)N1C[C@H](C)[C@H](CN(C)Cc2ccc(C(=O)Nc3ccccc3N)cc2)Oc2ccc(N(C)C)cc2C1=O | 2.53
C[C@H](CO)N1C[C@H](C)[C@@H](CN(C)Cc2ccc(Cl)c(Cl)c2)Oc2ccc(NS(=O)(=O)c3ccc(F)cc3)cc2CC1=O | 19
C[C@H](CO)N1C[C@H](C)[C@@H](CN(C)Cc2ccc(C(F)(F)F)cc2)Oc2ccc(NS(=O)(=O)c3ccc(F)cc3)cc2CC1=O | 18.2
C[C@H]1CN([C@@H](C)CO)C(=O)c2cc(N(C)C)ccc2O[C@@H]1CN(C)Cc1ccc(C(=O)Nc2ccccc2N)cc1 | 5.34
C[C@@H]1CN([C@H](C)CO)C(=O)c2cc(NC(=O)Nc3cccc4ccccc34)ccc2O[C@H]1CN(C)Cc1ccc(C(=O)Nc2ccccc2N)cc1 | 17
C[C@@H]1CN([C@@H](C)CO)C(=O)Cc2cc(NC(=O)CCCCCC(=O)Nc3ccccc3N)ccc2O[C@@H]1CN(C)CC1CCCCC1 | 7.13
COc1ccc(C#Cc2cnc3c(c2)C(=O)N([C@H](C)CO)C[C@H](C)[C@@H](CN(C)C(=O)Nc2cccc(OC)c2)O3)cc1 | 1.38
CC(=O)c1c(C(C)=O)c(C)n(Cc2ccc(Cl)cc2)c1C | 16.9
Cc1ccc(NS(=O)(=O)c2ccc(-n3cccn3)cc2)cc1F | 5.32
COc1ccc(S(=O)(=O)Nc2ccc3c(c2)CC(=O)N([C@@H](C)CO)C[C@@H](C)[C@H](CN(C)Cc2ccc(-c4ccccc4)cc2)O3)cc1 | 11
CC(C)(C)NC(=O)CN(C(=O)Cn1nnc(-c2ccccc2F)n1)c1cccc2c1CCCC2 | 19.4
Cc1ccc(S(=O)(=O)Nc2ccc3c(c2)CC(=O)N([C@H](C)CO)C[C@H](C)[C@@H](CN(C)Cc2ccc4c(c2)OCO4)O3)cc1 | 14.1
CCS(=O)(=O)c1ncc(Cl)c(C(=O)Nc2ccccc2OC)n1 | 2.12
